Results: paper PMC6513986, “Molecular basis for heat desensitization of TRPV1 ion channels” (Nature Communications, 2019)

Assays:
platypus TRPV1 (pV1) = platypus TRPV1 (pV1) (Ornithorhynchus anatinus, UniProt F7A7B4); assay: Agonist activation, patch clamp, HEK293T; format: cell-based; conditions: whole-cell, 3 mM
mV1_241 (ANAP) = mV1_241 (ANAP) (Mus musculus, UniProt Q704Y3, K241X); assay: Agonist activation of ANAP-incorporated channel, patch clamp; format: cell-based
pV1_241 (ANAP) = pV1_241 (ANAP) (Ornithorhynchus anatinus, UniProt F7A7B4); assay: as above; format: cell-based, platypus
mV1_579 (ANAP) = mV1_579 (ANAP) (Mus musculus, UniProt Q704Y3, C579X); assay: as above; format: cell-based
mV1_630 (ANAP) = mV1_630 (ANAP) (Mus musculus, UniProt Q704Y3, S630X); assay: as above; format: cell-based
mV1_648 (ANAP) = mV1_648 (ANAP) (Mus musculus, UniProt Q704Y3, L648X); assay: as above; format: cell-based
mV1_651 (ANAP) = mV1_651 (ANAP) (Mus musculus, UniProt Q704Y3, T651X); assay: as above; format: cell-based
mV1_654 (ANAP) = mV1_654 (ANAP) (Mus musculus, UniProt Q704Y3, Y654X); assay: as above; format: cell-based
mV1_685 (ANAP) = mV1_685 (ANAP) (Mus musculus, UniProt Q704Y3, E685X); assay: as above; format: cell-based
pV1_643 (ANAP) = pV1_643 (ANAP) (Ornithorhynchus anatinus, UniProt F7A7B4, S634X)
[1] = Emission peak of free ANAP at different temperatures; format: physicochemical; conditions: n=3
Text: ANAP fluorescence was excited by the Ar laser with a 375/28 excitation filter, T400lp dichroic mirror, and 435LP emission filter on an inverted fluorescence microscope (Nikon TE2000-U) using a ×40 oil-immersion objective (numerical aperture (NA) 1.3). Emission spectrum of ANAP was imaged with an Acton SpectraPro 2150i spectrograph in conjunction with an Evolve 512 EMCCD camera. The emission peak value was found by fitting the spectrum with a skewed Gauss distribution.

| SMILES | activation of pV1 by 2-APB (platypus TRPV1 (pV1); listed as 2-APB) | activation of pV1 by 2-APB (platypus TRPV1 (pV1); listed as 2-aminoethoxydiphenyl borate) | 2APB activation (mV1_241 (ANAP)) | 2APB activation (pV1_241 (ANAP)) | 2APB activation (mV1_579 (ANAP)) | 2APB activation (mV1_630 (ANAP)) | 2APB activation (mV1_648 (ANAP)) | 2APB activation (mV1_651 (ANAP)) | 2APB activation (mV1_654 (ANAP)) | 2APB activation (mV1_685 (ANAP)) | 2APB activation (pV1_643 (ANAP)) | change of emission spectrum during heating [1] |
| --- | --- | --- | --- | --- | --- | --- | --- | --- | --- | --- | --- | --- |
| NCCOB(c1ccccc1)c1ccccc1 [2APB, 2-aminoethoxydiphenyl borate] | currents elicited | directly activated | Yes | Yes | Yes | Yes | Yes | Yes | Yes | Yes | Yes | – |
| CC(=O)c1ccc2cc(NCC(N)C(=O)O)ccc2c1 (stereo not drawn) [free ANAP, 3-(6-acetylnaphthalen-2-ylamino)-2-aminopropanoic acid] | – | – | – | – | – | – | – | – | – | – | – | no change |
